Article PMC4769319, “Cohesin Releases DNA through Asymmetric ATPase-Driven Ring Opening” (Molecular Cell, 2016)

Molecular target: T1, Smc1/Smc3 heterodimer with Scc1-C (cohesin) (Saccharomyces cerevisiae, UniProt P32908+P47037, P32908:L1129V, form not given)
T1 construct: N-terminal tags; Sf9 insect cells; fluorescently labelled for MST; with Sister chromatid cohesion protein 1
T1 sequence (P32908 1-1225 L1129V): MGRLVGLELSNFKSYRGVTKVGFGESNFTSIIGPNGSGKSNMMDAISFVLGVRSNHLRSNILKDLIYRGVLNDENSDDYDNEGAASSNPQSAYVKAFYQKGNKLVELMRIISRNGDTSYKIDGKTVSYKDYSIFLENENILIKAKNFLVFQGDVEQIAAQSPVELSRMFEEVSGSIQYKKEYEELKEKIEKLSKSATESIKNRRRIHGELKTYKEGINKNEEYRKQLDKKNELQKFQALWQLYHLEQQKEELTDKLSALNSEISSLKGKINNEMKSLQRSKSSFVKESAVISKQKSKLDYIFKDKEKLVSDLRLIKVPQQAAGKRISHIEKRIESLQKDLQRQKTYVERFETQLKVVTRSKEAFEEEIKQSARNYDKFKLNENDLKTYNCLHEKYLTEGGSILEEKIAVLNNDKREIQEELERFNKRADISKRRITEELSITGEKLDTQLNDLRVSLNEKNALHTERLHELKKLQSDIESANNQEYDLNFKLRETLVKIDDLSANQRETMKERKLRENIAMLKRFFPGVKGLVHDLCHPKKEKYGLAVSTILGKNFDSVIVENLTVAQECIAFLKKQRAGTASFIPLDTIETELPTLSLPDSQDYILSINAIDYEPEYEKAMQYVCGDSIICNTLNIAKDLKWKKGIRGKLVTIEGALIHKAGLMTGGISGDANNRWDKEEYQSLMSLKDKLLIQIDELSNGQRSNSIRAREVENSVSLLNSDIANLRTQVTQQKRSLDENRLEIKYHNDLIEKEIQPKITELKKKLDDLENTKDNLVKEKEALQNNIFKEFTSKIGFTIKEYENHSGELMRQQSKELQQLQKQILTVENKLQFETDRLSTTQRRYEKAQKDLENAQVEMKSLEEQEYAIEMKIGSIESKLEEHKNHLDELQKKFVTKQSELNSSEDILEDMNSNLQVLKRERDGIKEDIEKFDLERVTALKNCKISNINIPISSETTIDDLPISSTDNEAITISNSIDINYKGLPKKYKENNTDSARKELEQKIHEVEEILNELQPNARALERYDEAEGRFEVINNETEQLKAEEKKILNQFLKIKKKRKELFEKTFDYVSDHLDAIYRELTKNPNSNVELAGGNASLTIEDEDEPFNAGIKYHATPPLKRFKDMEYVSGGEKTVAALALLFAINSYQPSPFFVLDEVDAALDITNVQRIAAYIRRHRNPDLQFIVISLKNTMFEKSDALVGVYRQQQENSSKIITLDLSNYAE
T1 sequence (P47037 1-1230): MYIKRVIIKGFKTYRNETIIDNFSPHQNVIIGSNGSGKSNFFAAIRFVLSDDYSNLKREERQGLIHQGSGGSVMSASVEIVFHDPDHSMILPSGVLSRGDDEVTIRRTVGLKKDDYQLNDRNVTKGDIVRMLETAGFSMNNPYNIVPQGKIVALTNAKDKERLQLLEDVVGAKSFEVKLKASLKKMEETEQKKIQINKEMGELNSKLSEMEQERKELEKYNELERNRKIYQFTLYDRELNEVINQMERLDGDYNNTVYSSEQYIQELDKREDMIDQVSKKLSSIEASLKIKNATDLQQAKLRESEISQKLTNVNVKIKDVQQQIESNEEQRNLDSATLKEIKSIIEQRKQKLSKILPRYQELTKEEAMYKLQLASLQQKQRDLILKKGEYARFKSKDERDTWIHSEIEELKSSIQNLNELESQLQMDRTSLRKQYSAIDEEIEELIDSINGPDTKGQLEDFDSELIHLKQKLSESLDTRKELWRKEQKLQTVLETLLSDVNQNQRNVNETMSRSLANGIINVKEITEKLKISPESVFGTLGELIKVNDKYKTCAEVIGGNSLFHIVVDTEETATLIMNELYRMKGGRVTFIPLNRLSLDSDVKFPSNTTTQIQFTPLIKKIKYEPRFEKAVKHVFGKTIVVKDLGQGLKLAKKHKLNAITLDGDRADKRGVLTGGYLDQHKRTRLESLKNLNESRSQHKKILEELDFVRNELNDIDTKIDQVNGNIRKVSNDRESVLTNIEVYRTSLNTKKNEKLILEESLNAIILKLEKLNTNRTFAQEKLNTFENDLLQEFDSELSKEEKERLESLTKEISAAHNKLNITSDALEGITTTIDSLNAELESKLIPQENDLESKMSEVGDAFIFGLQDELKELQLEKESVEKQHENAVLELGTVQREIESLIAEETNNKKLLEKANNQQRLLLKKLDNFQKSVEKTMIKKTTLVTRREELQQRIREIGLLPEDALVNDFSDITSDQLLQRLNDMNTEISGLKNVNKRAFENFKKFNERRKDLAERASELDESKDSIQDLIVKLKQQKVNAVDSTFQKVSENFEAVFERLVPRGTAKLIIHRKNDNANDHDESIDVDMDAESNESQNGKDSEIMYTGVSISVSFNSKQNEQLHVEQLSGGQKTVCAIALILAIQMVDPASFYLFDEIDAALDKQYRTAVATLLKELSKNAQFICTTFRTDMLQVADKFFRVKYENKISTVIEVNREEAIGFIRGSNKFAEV
T1 sequence (Q12158 1-566 partner): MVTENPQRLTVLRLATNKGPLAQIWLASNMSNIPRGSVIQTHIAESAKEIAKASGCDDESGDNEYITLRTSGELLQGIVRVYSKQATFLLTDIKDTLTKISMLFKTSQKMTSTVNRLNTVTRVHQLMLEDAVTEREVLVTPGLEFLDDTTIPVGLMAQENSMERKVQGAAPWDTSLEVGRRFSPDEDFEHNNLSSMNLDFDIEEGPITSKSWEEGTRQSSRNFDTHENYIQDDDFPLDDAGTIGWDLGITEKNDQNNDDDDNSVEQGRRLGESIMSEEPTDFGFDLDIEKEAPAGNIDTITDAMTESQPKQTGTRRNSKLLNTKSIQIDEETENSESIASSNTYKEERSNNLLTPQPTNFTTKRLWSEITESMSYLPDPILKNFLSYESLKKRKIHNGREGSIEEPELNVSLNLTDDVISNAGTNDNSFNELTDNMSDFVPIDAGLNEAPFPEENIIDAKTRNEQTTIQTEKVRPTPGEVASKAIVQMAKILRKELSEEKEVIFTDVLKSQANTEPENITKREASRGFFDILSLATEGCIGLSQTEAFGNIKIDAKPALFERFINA
Assay: microscale thermophoresis
Assay type: binding
Conditions: fluorescently labelled protein; Smc1 co-purified with Scc1-C, plus Smc3; read-out: affinity
From the text: microscale thermophoresis on Smc1/Smc3 heterodimer with Scc1-C (cohesin) | Smc1 L1129V, D1164E and E1158Q mutants all had wild-type-like affinity to both ATP and ADP | wild-type and mutant cohesin complexes appear to have similar affinities to ADP

**Q.** For `Nc1ncnc2c1ncn2[C@@H]1O[C@H](COP(=O)(O)OP(=O)(O)O)[C@@H](O)[C@H]1O` [ADP], which Kd is on record?
**A.** > 1000 µM

**Q.** Which Kd does the source give for `Nc1ncnc2c1ncn2[C@@H]1O[C@H](COP(=O)(O)OP(=O)(O)OP(=O)(O)O)[C@@H](O)[C@H]1O` [ATP] here?
**A.** 667 ± 211 µM
